The source of these data is US20240025884A1 (Dong-A ST Co., Ltd., priority 2022, published 2024).

The term IC50 denotes the concentration that gives 50% inhibition.

The assay has as its target GCN2 (Homo sapiens (Human), UniProt Q9P2K8). Nature of the assay: GCN2 Biochemical Assay (TR-FRET, GFP-eIF2S1 substrate phosphorylation). The settings on record: read-out: IC50 (GCN2 Inhibitory Activity). An outline of the steps:
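TR-FRET readout (Ex 340, Em 490/520 nm) after 2–3 h with Tb-labelled phospho-eIF2S1 antibody in stop mix, following a 70 min room-temperature kinase step. Reaction: in-house GCN2, GFP-eIF2S1, ATP, tRNA in Tris pH 7.5 (2× stocks 1.6 nM, 50 nM, 0.2 mM); compounds tested at 10 concentrations, with a phospho-substrate artifact counter-plate.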
For orientation: In TR-FRET formats the signal depends on donor and acceptor labels being close together.

Sequence of GCN2 (Q9P2K8 whole entry): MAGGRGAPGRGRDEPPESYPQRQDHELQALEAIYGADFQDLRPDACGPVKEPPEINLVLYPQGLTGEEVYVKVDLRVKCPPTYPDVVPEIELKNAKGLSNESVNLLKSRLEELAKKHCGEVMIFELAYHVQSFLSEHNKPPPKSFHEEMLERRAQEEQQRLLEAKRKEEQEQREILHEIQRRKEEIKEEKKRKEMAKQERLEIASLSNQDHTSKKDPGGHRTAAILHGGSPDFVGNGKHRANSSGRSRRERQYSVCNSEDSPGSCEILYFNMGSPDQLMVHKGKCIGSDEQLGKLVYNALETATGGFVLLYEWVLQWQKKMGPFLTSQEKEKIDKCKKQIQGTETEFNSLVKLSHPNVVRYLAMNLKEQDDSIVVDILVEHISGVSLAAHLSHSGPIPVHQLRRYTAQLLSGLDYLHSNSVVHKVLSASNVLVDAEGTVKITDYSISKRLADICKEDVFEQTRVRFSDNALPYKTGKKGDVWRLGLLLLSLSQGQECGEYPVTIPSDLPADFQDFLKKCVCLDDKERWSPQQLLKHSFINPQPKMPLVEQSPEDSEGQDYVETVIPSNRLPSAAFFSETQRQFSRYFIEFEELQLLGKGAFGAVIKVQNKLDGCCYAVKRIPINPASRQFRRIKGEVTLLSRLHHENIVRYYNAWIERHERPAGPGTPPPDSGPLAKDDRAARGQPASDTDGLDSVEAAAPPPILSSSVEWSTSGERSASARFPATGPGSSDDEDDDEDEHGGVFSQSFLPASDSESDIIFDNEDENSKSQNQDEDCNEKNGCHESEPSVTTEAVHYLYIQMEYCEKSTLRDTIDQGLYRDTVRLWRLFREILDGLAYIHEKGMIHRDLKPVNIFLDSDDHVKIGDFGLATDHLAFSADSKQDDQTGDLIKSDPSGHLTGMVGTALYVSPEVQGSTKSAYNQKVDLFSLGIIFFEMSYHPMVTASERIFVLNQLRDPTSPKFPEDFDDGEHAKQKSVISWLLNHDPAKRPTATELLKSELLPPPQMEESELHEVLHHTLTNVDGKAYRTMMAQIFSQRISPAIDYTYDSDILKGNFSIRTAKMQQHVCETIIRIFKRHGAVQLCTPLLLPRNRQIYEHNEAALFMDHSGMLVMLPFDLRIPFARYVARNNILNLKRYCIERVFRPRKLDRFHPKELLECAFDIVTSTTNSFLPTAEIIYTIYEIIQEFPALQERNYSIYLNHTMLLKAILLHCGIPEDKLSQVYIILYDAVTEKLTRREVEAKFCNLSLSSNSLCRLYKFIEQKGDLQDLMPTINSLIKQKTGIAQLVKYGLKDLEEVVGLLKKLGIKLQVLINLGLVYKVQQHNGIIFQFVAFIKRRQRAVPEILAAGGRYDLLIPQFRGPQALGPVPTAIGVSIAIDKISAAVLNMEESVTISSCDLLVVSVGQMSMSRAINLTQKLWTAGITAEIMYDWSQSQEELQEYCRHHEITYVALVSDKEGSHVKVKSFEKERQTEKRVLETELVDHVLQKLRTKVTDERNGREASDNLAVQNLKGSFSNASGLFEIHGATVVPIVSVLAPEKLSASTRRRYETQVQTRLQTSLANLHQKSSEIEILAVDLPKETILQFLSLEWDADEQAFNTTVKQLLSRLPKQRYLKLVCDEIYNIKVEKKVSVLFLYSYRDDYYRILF

On to `Cc1cnc(Nc2cc(C)n(C)n2)nc1-c1c[nH]c2c(N3Cc4cccc(N(C)C)c4C3=O)cccc12` [Example 349, 2-(3-(2-((1,5-dimethyl-1H-pyrazol-3-yl)amino)-5-methylpyrimidin-4-yl)-1H-indol-7-yl)-7-(dimethylamino)isoindolin-1-one], for which the IC50 is 0.01 to 0.1 µM.

For `Cc1cnc(Nc2cc(C)n(C)n2)nc1-c1c[nH]c2c(NC(=O)CN3CC[C@H](Oc4ccnc(NC(C)C)n4)C3)cccc12` [Example 211, (S)-N-(3-(2-((1,5-dimethyl-1H-pyrazol-3-yl)amino)-5-methylpyrimidin-4-yl)-1H-indol-7-yl)-2-(3-((2-(isopropylamino)pyrimidin-4-yl)oxy)pyrrolidin-1-yl)acetamide], the IC50 was < 0.01 µM.

`CCCCN(CC)c1cc(O[C@H]2CCN(CC(=O)Nc3cccc4c(-c5nc(Nc6cc(C)n(C)n6)ncc5C)c[nH]c34)C2)ncn1` [Example 157, (S)-2-(3-((6-(butyl(ethyl)amino)pyrimidin-4-yl)oxy)pyrrolidin-1-yl)-N-(3-(2-((1,5-dimethyl-1H-pyrazol-3-yl)amino)-5-methylpyrimidin-4-yl)-1H-indol-7-yl)acetamide]: the 50% inhibitory concentration (IC50) was in the range of 0.01 to 0.1 µM. The same measure for `Cc1cnc(Nc2cc(C)n(C)n2)nc1-c1c[nH]c2c(N3Cc4c(cccc4-c4ccncc4)C3=O)cccc12` [Example 387, 2-(3-(2-((1,5-dimethyl-1H-pyrazol-3-yl)amino)-5-methylpyrimidin-4-yl)-1H-indol-7-yl)-4-(pyridin-4-yl)isoindolin-1-one]: < 0.01 µM. To `Cc1cnc(Nc2cc(C)n(C)n2)nc1-c1c[nH]c2c(N3Cc4c(cccc4-c4ccc(C(=O)N5CCC(=O)CC5)cc4)C3=O)cccc12` [Example 412, 2-(3-(2-((1,5-dimethyl-1H-pyrazol-3-yl)amino)-5-methylpyrimidin-4-yl)-1H-indol-7-yl)-4-(4-(4-oxopiperidine-1-carbonyl)phenyl)isoindolin-1-one] belongs < 0.01 µM.

Take `Cc1cnc(Nc2cc(C)n(C)n2)nc1-c1c[nH]c2c(N3Cc4c(cccc4-c4ccoc4)C3=O)cccc12` [Example 393, 2-(3-(2-((1,5-dimethyl-1H-pyrazol-3-yl)amino)-5-methylpyrimidin-4-yl)-1H-indol-7-yl)-4-(furan-3-yl)isoindolin-1-one]: the IC50 was < 0.01 µM. The same measure for `CCc1cnc(Nc2cc(C)n(C)n2)nc1-c1c[nH]c2c(NC(=O)CN3CC[C@H](Oc4ccnc(NC5CC5)n4)C3)cccc12` (stereo in doubt) [Example 11, (3-((2-(cyclopropylamino)pyrimidin-4-yl)oxy)pyrrolidin-1-yl)-N-(3-(2-((1,5-dimethyl-1H-pyrazol-3-yl)amino)-5-ethylpyrimidin-4-yl)-1H-indol-7-yl)acetamide]: < 0.01 µM; for `Cc1cnc(Nc2cc(C)n(C)n2)nc1-c1c[nH]c2c(NC(=O)CN3CC[C@@H](Nc4ccncc4)C3)cccc12` [Example 49, (R)-N-(3-(2-((1,5-dimethyl-1H-pyrazol-3-yl)amino)-5-methylpyrimidin-4-yl)-1H-indol-7-yl)-2-(3-(pyridin-4-ylamino)pyrrolidin-1-yl)acetamide]: 0.01 to 0.1 µM.

Take `Cc1cnc(Nc2cc3n(n2)CCC3)nc1-c1c[nH]c2c(NC(=O)CN3CC[C@H](Oc4ccnc(NC5CC5)n4)C3)cccc12` [Example 16, (S)-2-(3-((2-(cyclopropylamino)pyrimidin-4-yl)oxy)pyrrolidin-1-yl)-N-(3-(2-((5,6-dihydro-4H-pyrrolo[1,2-b]pyrazol-2-yl)amino)-5-methylpyrimidin-4-yl)-1H-indol-7-yl)acetamide]: the IC50 is < 0.01 µM. For `Cc1cnc(Nc2cc(C)n(C)n2)nc1-c1c[nH]c2c(N3C(=O)c4ccc([N+](=O)[O-])cc4C3=O)cccc12` [Example 264, 2-(3-(2-((1,5-dimethyl-1H-pyrazol-3-yl)amino)-5-methylpyrimidin-4-yl)-1H-indol-7-yl)-5-nitroisoindoline-1,3-dione], the IC50 is < 0.01 µM. To `Cc1cnc(Nc2cc(C)n(C)n2)nc1-c1c[nH]c2c(NC(=O)C(=O)N3CC[C@H](Oc4ccncc4)C3)cccc12` [Example 18, (S)-N-(3-(2-((1,5-dimethyl-1H-pyrazol-3-yl)amino)-5-methylpyrimidin-4-yl)-1H-indol-7-yl)-2-ox0-2-(3-(pyridin-4-yloxy)pyrrolidin-1-yl)acetamide] belongs 0.01 to 0.1 µM.

Take `Cc1cnc(Nc2cc(C)n(C)n2)nc1-c1c[nH]c2c(NC(=O)CN3CC[C@H](Oc4ncnc(N(C)C)n4)C3)cccc12` [Example 136, (S)-N-(3-(2-((1,5-dimethyl-1H-pyrazol-3-yl)amino)-5-methylpyrimidin-4-yl)-1H-indol-7-yl)-2-(3-((4-(dimethylamino)-1,3,5-triazin-2-yl)oxy)pyrrolidin-1-yl)acetamide]: the IC50 is < 0.01 µM.

As to `Cc1cnc(Nc2cc(C)n(C)n2)nc1-c1c[nH]c2c(N3Cc4c(NCc5ccccc5)cccc4C3=O)cccc12` [Example 354, 4-(benzylamino)-2-(3-(2-((1,5-dimethyl-1H-pyrazol-3-yl)amino)-5-methylpyrimidin-4-yl)-1H-indol-7-yl)isoindolin-1-one], the IC50 is 0.01 to 0.1 µM. `Cc1cnc(Nc2cc(C)n(C)n2)nc1-c1c[nH]c2c(NC(=O)CN3CC[C@H](Oc4ccnc(N5CCOCC5)n4)C3)cccc12` [Example 224, (S)-N-(3-(2-((1,5-dimethyl-1H-pyrazol-3-yl)amino)-5-methylpyrimidin-4-yl)-1H-indol-7-yl)-2-(3-((2-morpholinopyrimidin-4-yl)oxy)pyrrolidin-1-yl)acetamide]: the IC50 is < 0.01 µM.

In the case of `Cc1cnc(Nc2cc(C)n(C)n2)nc1-c1c[nH]c2c(NC(=O)CN3CC[C@@H](C(=O)N4CCOCC4)C3)cccc12` [Example 67, (R)-N-(3-(2-((1,5-dimethyl-1H-pyrazol-3-yl)amino)-5-methylpyrimidin-4-yl)-1H-indol-7-yl)-2-(3-(morpholine-4-carbonyl)pyrrolidin-1-yl)acetamide], the IC50 was 0.1 to 1 µM. The same measure for `CCNC(=O)/C(C)=C/c1cccc2c1CN(c1cccc3c(-c4nc(Nc5cc(C)n(C)n5)ncc4C)c[nH]c13)C2=O` [Example 376, (E)-3-(2-(3-(2-((1,5-dimethyl-1H-pyrazol-3-yl)amino)-5-methylpyrimidin-4-yl)-1H-indol-7-yl)-1-oxoisoindolin-4-yl)-N-ethyl-2-methylacrylamide]: < 0.01 µM.

As for `Cc1cnc(Nc2cc(C)n(C)n2)nc1-c1c[nH]c2c(N3Cc4c(NC(=O)c5cccnc5)cccc4C3=O)cccc12` [Example 298, N-(2-(3-(2-((1,5-dimethyl-1H-pyrazol-3-yl)amino)-5-methylpyrimidin-4-yl)-1H-indol-7-yl)-1-oxoisoindolin-4-yl)nicotinamide], the IC50 was < 0.01 µM. As to `CCN(CC)c1cc(O[C@H]2CCN(CC(=O)Nc3cccc4c(-c5nc(Nc6cc(C)n(C)n6)ncc5C)c[nH]c34)C2)ncn1` [Example 155, (S)-2-(3-((6-(diethylamino)pyrimidin-4-yl)oxy)pyrrolidin-1-yl)-N-(3-(2-((1,5-dimethyl-1H-pyrazol-3-yl)amino)-5-methylpyrimidin-4-yl)-1H-indol-7-yl)acetamide], the IC50 fell in the range of 0.01 to 0.1 µM. To `Cc1cnc(Nc2cc(C)n(C)n2)nc1-c1c[nH]c2c(N3Cc4c(NC(=O)N5CCOCC5)cccc4C3=O)cccc12` [Example 296, N-(2-(3-(2-((1,5-dimethyl-1H-pyrazol-3-yl)amino)-5-methylpyrimidin-4-yl)-1H-indol-7-yl)-1-oxoisoindolin-4-yl)morpholine-4-carboxamide] belongs < 0.01 µM; to `Cc1cnc(Nc2cc(C)n(C)n2)nc1-c1c[nH]c2c(NC(=O)CN3CC[C@H](Oc4ccncn4)C3)cccc12` [Example 78, (S)-N-(3-(2-((1,5-dimethyl-1H-pyrazol-3-yl)amino)-5-methylpyrimidin-4-yl)-1H-indol-7-yl)-2-(3-(pyrimidin-4-yloxy)pyrrolidin-1-yl)acetamide], < 0.01 µM; to `CCCNC(=O)/C=C/c1cccc2c1CN(c1cccc3c(-c4nc(Nc5cc(C)n(C)n5)ncc4C)c[nH]c13)C2=O` [Example 373, (E)-3-(2-(3-(2-((1,5-dimethyl-1H-pyrazol-3-yl)amino)-5-methylpyrimidin-4-yl)-1H-indol-7-yl)-1-oxoisoindolin-4-yl)-N-propylacrylamide], < 0.01 µM. The same measure for `Cc1cnc(Nc2cc(C)n(C)n2)nc1-c1c[nH]c2c(NC(=O)CN3CC[C@H](Oc4ccnc(NCCN(C)C)n4)C3)cccc12` [Example 217, (S)-N-(3-(2-((1,5-dimethyl-1H-pyrazol-3-yl)amino)-5-methylpyrimidin-4-yl)-1H-indol-7-yl)-2-(3-((2-((2-(dimethylamino)ethyl)amino)pyrimidin-4-yl)oxy)pyrrolidin-1-yl)acetamide]: < 0.01 µM. The same measure for `Cc1cnc(Nc2cc(C)n(C)n2)nc1-c1c[nH]c2c(N3Cc4c(cccc4-c4cnc(N5CCNCC5)nc4)C3=O)cccc12` [Example 424, 2-(3-(2-((1,5-dimethyl-1H-pyrazol-3-yl)amino)-5-methylpyrimidin-4-yl)-1H-indol-7-yl)-4-(2-(piperazin-1-yl)pyrimidin-5-yl)isoindolin-1-one]: < 0.01 µM; for `Cc1cnc(Nc2cc(C)n(C)n2)nc1-c1c[nH]c2c(N3Cc4c(Br)ccnc4C3=O)cccc12` [Example 286, 4-bromo-6-(3-(2-((1,5-dimethyl-1H-pyrazol-3-yl)amino)-5-methylpyrimidin-4-yl)-1H-indol-7-yl)-5,6-dihydro-7H-pyrrolo[3,4-b]pyridin-7-one]: < 0.01 µM; for `Cc1cnc(Nc2cc(C)n(C)n2)nc1-c1c[nH]c2c(NC(=O)CN3CC[C@H](Oc4cc(-c5ccccc5)ncn4)C3)cccc12` [Example 248, (S)-N-(3-(2-((1,5-dimethyl-1H-pyrazol-3-yl)amino)-5-methylpyrimidin-4-yl)-1H-indol-7-yl)-2-(3-((6-phenylpyrimidin-4-yl)oxy)pyrrolidin-1-yl)acetamide]: 0.01 to 0.1 µM.
